According to US7981878B2, “Tumor treatment with gliotoxin derivatives” (priority 2005, dated 2011):

What was measured:
Notch2 (N2^IC) = assay: Nuclear Notch2 activity in B-CLL cells by EMSA (band shift assay); type: cell-based, human; conditions: B-CLL cells, 0.2 μM gliotoxin, 24 h
Protocol: (§1) FIG. 3: Gliotoxin is a potent Notch2 trans-activation inhibitor in B-CLL cells. (A) EMSA showing the inhibition of DNA-bound Notch2IC complexes in the presence of 0.2 μg Gliotoxin. B-CLL samples (n=10) were cultured in the presence of 1 ng/ml TPA with or without 0.2 μM Gliotoxin for 24 hours. Nuclear extracts were subjected to EMSA using a oligonucleotide probe spanning a well defined CBF1/NotchIC binding site derived from the CD23a promoter. (B). Corresponding FACS analysis (plus 10 additional B-CLL samples) showing the downregulation of the Notch2 target gene CD23 as well as the induction of apoptosis of Gliotoxin treated B-CLL samples. Columnes represent the percentage of CD19^+CD23^+ (grey bars) and apoptotic cells (black bars: including early apoptotic cells single positive for AnnexinV, and late apoptotic cells double positive for AnnexinV and probidium iodide), respectively.
(§2) As drug screening model, a cell culture system was established which conserves the phenotype of freshly isolated B-CLL cells (3×10^6 B-CLL cells/ml RPMI medium+10% FCS, supplemented with 1 ng/ml of TPA). Notch2 activity in the cell nucleus is determined by means of EMSA (electrophoretic mobility shift assay) experiments, and the cell viability (Probidium iodide/annexinV) and CD23 expression (Notch2 target gene) is determined by means of FACS (flow cytometry) analyses, respectively. […]

CD23 = CD23 expression (Notch2 target gene) in B-CLL cells by FACS; type: cell-based, human; conditions: 0.2 μM gliotoxin, 24 h
Protocol: as §1, §2

[1] = system: Huh7 (hepatocellular carcinoma); assay: Cell count analysis Huh7; type: cell-based, human; conditions: Huh7, 200 nM gliotoxin, 72 h
Protocol: (§3) FIG. 8 a-d: Effects of gliotoxin on cell counts of various human tumour cell lines in vitro. Cell counts of a) hepatocellular carcinoma cell lines HepG2, Huh7, SNU398, Hep3b, HeLa (cervix) and the cholangiocarcinoma cell line NEC as well as b) the pancreatic cancer cell line Panc-1 and the melanoma cell lines d) MelJuso, Meljuso-Bcl-2 (+) and 607B after 72 h treatment with 200 nM gliotoxin; c-d) Cell count dose range experiments with c) pancreatic carcinoma cell lines Panc-1 and MiaPaCa as well as melanoma cell lines MelJuso, 518A2 and 607B using 25, 50 100 and 200 nM gliotoxin for 24 h. All data are given relative to control ±standard deviation.
(§4) Tumour cells were seeded at a density of 10,000 cells/well in 24-well plates. 24 h after seeding, medium containing gliotoxin was added to yield desired concentrations of gliotoxin. At time points indicated, culture medium was removed by suction. Adherent cells were washed with DPBS (Cambrex, Verviers, Belgium) and incubated with trypsin (Gibco) at 37° C. Detached cells were transferred to test tubes containing Cellpack isotonic fluid (Sysmex Europe, Bornbarch, Germany) and counted with a Coulter Z1 electronic cell counter (Beckman Coulter, Bedford, UK).

[2] = system: Hep3B (hepatocellular carcinoma); assay: Cell count analysis Hep3B; type: cell-based, human; conditions: 200 nM gliotoxin, 72 h
Protocol: as §3, §4

[3] = system: HeLa cells (cervix carcinoma); assay: Cell count analysis HeLa; type: cell-based, human; conditions: 0.2 μM gliotoxin, within 72 hours
Protocol: as §3, §4

[4] = system: Panc-1 (pancreas carcinoma); assay: Cell count analysis Panc-1; type: cell-based, human
Protocol: as §3, §4

607B (melanoma) = assay: Cell count analysis 607B; type: cell-based, human
Protocol: as §3, §4

Notch2 = Notch2 activity band shift assay in 518A2; type: cell-based, human; conditions: 518A2, 200 nM gliotoxin, maximum at 24 h
Protocol: FIG. 10 a-b: Effects of gliotoxin on Notch2 regulation and apoptosis. The melanoma cell line 518A2 (A) and the pancreatic cancer cell line Panc-1 (B) were treated with 200 nM gliotoxin or vehicle control for 24 h Notch2 activity was analysed by band shift assay. Apoptosis was measured as annexin V and 7-AAD double positivity by FACS. Data are given as percentage of apoptotic cells ±standard deviation.
500,000 cells were seeded on 12 cm^2 plates for 24 h and then treated with 200 nM gliotoxin. At the time points as indicated cells were harvested and immediately frozen at −80° C. The band shift assay was performed as described for B-CLL.

[5] = system: B1 B-cells (LPS responder); conditions: mice, single administration of 100 μg of gliotoxin; cited from earlier work
[6] = system: U937 (macrophage cell line); conditions: cited from earlier work
mouse cell line P388 = conditions: cited from earlier work

CN1C(=O)[C@]23CC4=CC=C[C@H](O)[C@H]4N2C(=O)[C@@]1(CO)SS3 [gliotoxin, [3R-(3α,5aβ,6β,10aα)]-2,3,5a,6-tetrahydro-6-hydroxy-3-(hydroxymethyl)-2-methyl-10H-3,10a-epi-dithiopyrazino[1,2-a]indol-1,4-dion]
transcriptional Notch2 activity (EMSA) (Notch2 (N2^IC)): dramatic loss | CD23 expression (CD23): loss of the CD23 expression | mean reduction of cell numbers compared to vehicle treated controls [1]: 31% | mean reduction of cell numbers compared to vehicle treated controls [2]: 88% | effect on the cell count [3]: no significant effect | response ([4]; Panc-1, 0.2 μM (60 ng/ml)): ~100% | effect on cell count ([4]; Panc-1, 200 nM gliotoxin, 72 h): very effective | cytotoxicity in dose range experiment (cell count) ([4]; Panc-1, 25, 50, 100 and 200 nM, 24 h): clear dose dependent cytotoxicity | effect on cell count (607B (melanoma); 607B, 200 nM gliotoxin, 72 h): very effective | cytotoxicity in dose range experiment (cell count) (607B (melanoma); 607B, 25, 50, 100 and 200 nM, 24 h): clear dose dependent cytotoxicity | Notch-2 activity (band shift assay) (Notch2): time dependent down regulation | effect on B1 B-cells (LPS responder) [5]: complete loss of B1 B-cells | IC50 with regard to cell viability [6]: 0.014 µg/mL | IC50 with regard to cell viability (mouse cell line P388): 5,8 ng/ml
